Experiments:
[1] = absolute recovery over vacuum-assisted evaporative concentration; higher = better recovery; conditions: enrichment method: VEC
How it was run: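 After spiking with standards before concentration, after concentration or not at all, at 1000 ng/L for wastewater or 200 ng/L for nanopure and surface water with class- and compound-specific adjustments, samples of 6 mL influent, 15 mL effluent and 60 mL surface or nanopure water were evaporated at 55 °C and 20 mbar to about 0.3 mL. They were brought to 0.4 mL, centrifuged, given internal standards and analysed by LC-HRMS/MS. Absolute recovery, (response ratio pre − unspiked)/(post − unspiked) × 100, used averages of ≥ 2 replicates.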

[2] = absolute recovery over mixed-bed multilayer solid-phase extraction; higher = better recovery; conditions: enrichment method: SPE
How it was run: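 Wastewater (100–250 mL, pH 6.5, glass-fibre filtered) and unfiltered nanopure water (1000 mL) were extracted on a three-layer mixed-bed cartridge, with standards spiked before extraction, after it, or not at all at 1000 ng/L and 200 ng/L respectively, apart from some classes. Internal standards were then added for liquid chromatography with high-resolution tandem mass spectrometry in both ionisation modes. Absolute recovery compares background-corrected response ratios of pre- and post-spiked samples across at least two replicates.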

[3] = LC retention time (Atlantis T3, 5-95% MeOH gradient, 0.1% formic acid); higher = more retained / less polar
How it was run: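 Retention times were recorded for reference standards on a polar reversed-phase C18 column. The standards were of purity ≥ 95%, and the Atlantis T3 column (3 × 150 mm, 3 μm) was run at 0.3 mL/min with a gradient from 5 to 95% methanol over 17.5 min, both water and methanol containing 0.1% formic acid. Detection used high-resolution tandem mass spectrometry on a QExactive Plus, with positive and negative electrospray in separate runs, and peaks were integrated in TraceFinder (5 ppm tolerance, at least three points per peak) before being checked by hand.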

absolute recovery ([1]; wastewater effluent) [%]	absolute recovery ([1]; wastewater influent) [%]	absolute recovery ([2]; nanopure water) [%]	absolute recovery ([2]; surface water) [%]	absolute recovery ([2]; wastewater effluent) [%]	absolute recovery ([2]; wastewater influent) [%]	LC retention time [3] [min]	Compound
107	103	92.1	92.6	87.4	90.6	8.64	CC(C)[NH2+]CC(O)COc1ccc(CC(N)=O)cc1 (centres undefined) [Atenolol]
116	61.4	87.6	100	95.5	95.1	20.3	COC(=O)NC(C(=O)NC(Cc1ccccc1)C(O)CN(Cc1ccc(-c2ccccn2)cc1)NC(=O)C(NC(=O)OC)C(C)(C)C)C(C)(C)C (centres undefined) [Atazanavir]
97.1	104	84.2	78.3	83	91.8	7.67	Nc1nc(=O)c2ncn(CCC(CO)CO)c2[nH]1 [Penciclovir]
87.8	78.5	84.4	84.7	82.7	83.7	16.4	NC(=O)N1c2ccccc2CC(=O)c2ccccc21 [Oxcarbazepin]
110	98.1	103	91.8	91.4	89.8	13.8	CC(C)[NH2+]CC(O)COc1ccc(COCCOC(C)C)cc1 (centres undefined) [Bisoprolol]
127	120	105	127	113	74.2	20.4	CCOC(=O)NCCOc1ccc(Oc2ccccc2)cc1 [Fenoxycarb]
51	45.4	83.9	85.9	84.5	81.1	12.7	Clc1ccccc1C[NH+]1CCc2sccc2C1 [Ticlopidin]
113	99.5	98.6	93.8	89.2	92.8	12	CC(=O)Nc1ccc(S(=O)(=O)[N-]c2ncccn2)cc1 [N4-Acetyl-Sulfadiazin]
105	102	96.6	97.3	94.8	92.2	15.7	NC(=O)N1c2ccccc2C2OC2c2ccccc21 (centres undefined) [Carbamazepin-10-11-epoxid]
103	95.5	98.5	93.6	88.1	96.2	10.7	Nc1ccc(S(=O)(=O)[N-]c2ccccn2)cc1 [Sulfapyridin]
89.8	92.9	72.8	79.5	77	88.2	9.33	Cc1c(N(C)C)c(=O)n(-c2ccccc2)n1C [4-Dimethylaminoantipyrin (=Aminopyrin)]
101	97.9	77.3		78.8	87.3	16.2	NS(=O)(=O)c1cc(C(=O)[O-])c(NCc2ccco2)cc1Cl [Furosemid]

The remaining lines, values behind:

Compound	absolute recovery ([1]; wastewater effluent) [%]	absolute recovery ([1]; wastewater influent) [%]	absolute recovery ([2]; nanopure water) [%]	absolute recovery ([2]; surface water) [%]	absolute recovery ([2]; wastewater effluent) [%]	absolute recovery ([2]; wastewater influent) [%]	LC retention time [3] [min]
C[NH+]1C2CCC1C(C(=O)[O-])C(OC(=O)c1ccccc1)C2 (centres undefined) [Benzoylecgonin]	120	110	97.8	96	94.8	95.1	12.8
CC(=O)Nc1c(I)c(NC(C)=O)c(I)c(C(=O)[O-])c1I [Diatrizoate (=Amidotrizoic-acid)]	100	102	69	74.5	73.8	65.1	10
Cc1cc(Cl)ccc1OC(C)C(=O)[O-] (centres undefined) [Mecoprop]	101	99	100	99.2	94.9	94.2	20
CC1COC(Cn2cncn2)(c2ccc(Oc3ccc(Cl)cc3)cc2Cl)O1 (centres undefined) [Difenoconazol]	100	126	90.2	100	102	70.9	21.4
CCC1OC(=O)C(C)C(OC2CC(C)(OC)C(O)C(C)O2)C(C)C(OC2OC(C)CC([N+](C)(C)[O-])C2O)C(C)(OC)CC(C)C(=O)C(C)C(O)C1(C)O (centres undefined) [Clarithromycin-N-Oxide]	103	95.9	91.1	85.3	96.6	93.9	17.3
CC(C)(C)C(O)C(Oc1ccc(Cl)cc1)n1cncn1 (centres undefined) [Triadimenol-A]	87.1	97.4	98.4	83.6	85.5	94.1	20
CC1CC2C(C(O)CC3(C)C2CCC3(O)C(=O)CO)C2(C)C=CC(=O)C=C12 (centres undefined) [Methylprednisolon]	106	101	93.1	92.3	84.4	88.4	18.9
CC(Oc1ccc(Oc2ccc(C(F)(F)F)cn2)cc1)C(=O)[O-] (centres undefined) [Fluazifop]	101	102	99.5	96.8	96.6	98	19.7
Cc1cccc(C)c1N(Cn1cccn1)C(=O)CCl [Metazachlor]	104	96	96.5	97	93.4	94.5	18.3
O=C1NCCN1Cc1ccc(Cl)nc1 [Imidacloprid-urea]	108	104	117	108	103	94.9	13.2
[NH3+]C(Cc1cc(I)c(O)c(I)c1)C(=O)[O-] [3-5-Diiodo-L-tyrosine]	90.5	96.4	69.5	39.2	55.8	74.5	13.2
CNC(=C[N+](=O)[O-])NCCSCc1ccc(C[N+](C)(C)[O-])o1 [Ranitidin-N-oxid]	103	92.2	50.9	69.4	63.7	73.7	8.99
CC[NH+]1CCCC1CNC(=O)c1cc(S(=O)(=O)CC)c(N)cc1OC (centres undefined) [Amisulprid]	106	102	93.1	94.8	93.4	92.7	10.4

Source: the supplement of paper PMC6470124
